Structures are written as SMILES. “And” between values parts separate entries of the source, which are not always exact repeats. Identical values can stand only once.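 48-hour exposure; five concentrations; linearly interpolated endpoints. GI50 marks 50% less growth. TGI denotes the concentration required for complete inhibition of growth.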

Common to all, as to assay: NCI-60 cell line screen, 48 h
For test [1], the system named is K-562 leukemia.
Test [2] deals with MOLT-4 leukemia.
Test [3] has as its system SR leukemia.
Test [4] relates to IGROV1 ovarian.
Test [5] deals with HCC-2998 colon.
For test [6], the system named is EKVX NSCLC.
The test system of test [7] is HT29 colon.
In test [8] the test system is OVCAR-8 ovarian.
For test [9], the system named is HOP-92 NSCLC.
Test [10] has as its system UACC-257 melanoma.

As for `CCCCCC(=O)OCC(=O)[C@H]1[C@H](C)C[C@H]2[C@@H]3C[C@H](F)C4=C/C(=N/OC(=O)c5cccc6c(=O)c7ccccc7[nH]c56)C=C[C@]4(C)[C@H]3[C@@H](O)C[C@@]21C`, the TGI was greater than 100 µM in test [1]; greater than 100 µM in test [2]; 93.3 µM in [3]; greater than 100 µM in test [4]; 82.4 µM in test [5]; greater than 100 µM in test [6]. Moreover, the TGI was 57.8 µM in [7], 65.9 µM in test [8], greater than 100 µM in test [9] and 62 µM in test [10].
Turning to `C=CCNC(=O)/C(Cc1cc(Br)c(OC)c(Br)c1O)=N\O`, the TGI was greater than 100 µM in [1]; greater than 100 µM in test [2]; greater than 100 µM in test [3]; 47.8 µM in [4]; 14.2 µM in [5]; 25.2 µM in [6]. In addition, the TGI in [7] was determined as 35 µM; in test [8], 20.9 µM; in test [9] it was 24.1 µM; in test [10] it was 27.1 µM.
For the molecule `CC1(C)CCCCCCCCCC(C)(CCCO)C1=O` (stereo not given), the TGI in test [1] is 73.7 µM; in [2] it was 41.9 µM; in test [3] it was greater than 100 µM; in test [4], 31.4 µM; in test [5], 33.7 µM; in [6], 36.7 µM. The TGI is 26.6 µM in [7], 35.8 µM in test [8], 27.7 µM in [9] and 31.8 µM in test [10].
As for `O=c1oc2cc(O)ccc2c(O)c1C(c1ccccn1)c1c(O)c2ccc(O)cc2oc1=O`, the TGI in [1], in test [2], in test [3], in [4], in test [5] and in test [6] was greater than 100 µM each time. The TGI in [7], in test [8], in test [9] and in test [10] was greater than 100 µM in each case.
As for `O=c1oc2ccccc2cc1-c1nnc(-c2ccccc2)s1`, the TGI in test [1] is greater than 100 µM; in test [2], greater than 100 µM; in test [3], greater than 36.8 µM; in test [4], greater than 66.3 µM; in test [5], greater than 100 µM; in test [6], greater than 100 µM. Also, the TGI in test [7] is greater than 100 µM; in test [8] it was greater than 69.4 µM; in test [9], greater than 100 µM; in test [10], greater than 100 µM.
`CN(C)CCOC1(Cc2ccc(Cl)cc2Cl)CCC(C(C)(C)C)CC1` (stereo not given): the TGI in test [1] is 3.77 µM and 3.94 µM; in [2], 4.72 µM and 4.23 µM; in test [3], 4.64 µM and 1.47 µM; in [4], 6.33 µM and 3.25 µM; in test [5], 3.37 µM and 3.23 µM; in [6] it was 8.25 µM and 9.01 µM. Moreover, the TGI in test [7] is 3.16 µM and 3.13 µM; in [8] it was 3.59 µM and 3.74 µM; in test [9], 3.54 µM and 5.92 µM; in [10], 3.75 µM and 3.24 µM. Further, the GI50 in [3] was 1870 nM; in [4], 2380 nM; in test [6] it was 3.04 µM and 4.01 µM; in test [9], 1800 nM and 2120 nM; in test [10], 1640 nM.
On to `COC(=O)[C@H]1C=C[C@@H](C)n2c(=O)c3ccccc3c(=O)n21`, for which the TGI in test [1], in [2], in [3], in test [4], in test [5] and in test [6] was greater than 100 µM each time. For the same molecule, the TGI in [7], in [8], in [9] and in test [10] was greater than 100 µM each time.
Consider `C=C1CC2(OC1=O)c1ccccc1C=Cc1ccccc12`, for which the TGI in test [1] was determined as 10.7 µM; in [2], 5.4 µM; in test [3], 9.17 µM; in test [4] it was 15.9 µM; in [5] it was 13.5 µM; in [6] it was 18.3 µM. Moreover, the TGI in [7] turned out to be 6.8 µM; in [8], 11.7 µM; in test [9], 3.44 µM; in test [10], 10.2 µM.
For the molecule `CN(C)c1ncnc2c1ncn2C1C=CC(COS(N)(=O)=O)C1` (stereo not given), the TGI in test [1], in test [2], in test [3], in [4], in test [5] and in test [6] was greater than 100 µM each time. The TGI in test [7], in test [8], in [9] and in [10] was greater than 100 µM throughout.
Consider `C#CCCOC1(OC)N=NC(C)(C)O1` (stereo not given), for which the TGI in [1], in [2], in test [3], in test [4], in [5] and in [6] was greater than 100 µM in each case. Further, the TGI in test [7], in test [8], in [9] and in test [10] was greater than 100 µM in each case.
With `C[C@]12CC(c3ccccc3O1)C(C#N)C(=O)N2` (stereo not given in full), the TGI in test [1], in test [2], in test [3], in [4], in test [5] and in [6] was greater than 100 µM in each case. For the same molecule, the TGI in test [7], in [8], in [9] and in test [10] was greater than 100 µM in each case.
In the case of `COc1ccc(OC)c(NC(=O)C(=O)Nn2c(=S)[nH]c3ccccc3c2=O)c1`, the TGI in test [1], in [2], in test [3], in test [4], in [5] and in test [6] was greater than 100 µM throughout. In addition, the TGI in [7], in [8], in test [9] and in test [10] was greater than 100 µM each time.
Turning to `CN(C)CCCSc1c2ccccc2nc2cc(NCC(=O)Nc3ccccc3-c3ccccc3NC(=O)CNc3ccc4c(SCCCN(C)C)c5ccccc5nc4c3)ccc12`, the TGI in test [1], in test [2], in [3], in test [4], in test [5] and in [6] was greater than 100 µM each time. Besides, the TGI in test [7], in [8], in test [9] and in test [10] was greater than 100 µM in each case.
Take `COc1ccc(C2CCC(Cl)(OC)CC2C=O)cc1` (stereo not given): the TGI in test [1], in test [2], in test [3], in test [4], in test [5] and in test [6] was greater than 100 µM each time. Further, the TGI in test [7], in test [8], in test [9] and in test [10] was greater than 100 µM throughout.
With `O=[N+]([O-])/C(Cl)=C(\Nc1ccccc1)C(Cl)=C(Cl)Cl`, the TGI in [1] is 68.6 µM; in test [2], greater than 100 µM; in [3], 69.9 µM; in test [4], 79 µM; in test [5] it was 94.4 µM; in [6] it was greater than 100 µM. The TGI was 69.9 µM in test [7], 53.9 µM in test [8], 69.5 µM in [9] and greater than 100 µM in test [10].
Consider `Cc1ccc(S(=O)(=O)[N-]C2C(=O)c3ccccc3C(=O)C2[n+]2cccc(C(N)=O)c2)cc1` (stereo not given), for which the TGI in test [1], in [2], in test [3], in test [4], in test [5] and in test [6] was greater than 100 µM throughout. In addition, the TGI in test [7], in [8], in [9] and in test [10] was greater than 100 µM throughout.
As to `Cc1nccc2c1cnc1ccnn12`, the TGI in [1], in test [2], in [3], in [4], in [5] and in [6] was greater than 100 µM in each case. The TGI in [7], in [8], in test [9] and in test [10] was greater than 100 µM each time.
Regarding `CCC(CC)C(=O)OC[n+]1cccc(-c2c(COC(=O)NC(C)C)c(COC(=O)NC(C)C)c3n2CCC3)c1`, the TGI in [1], in [2], in test [3], in test [4], in test [5] and in test [6] was greater than 100 µM in each case. The TGI in test [7], in [8], in [9] and in [10] was greater than 100 µM each time.
Take `CC(=O)n1nc(-c2nc3ccccc3nc2Cl)cc1Cl`: the TGI is greater than 53.2 µM in [1]; 14.3 µM in test [2]; 13.3 µM in test [3]; greater than 100 µM in test [4]; greater than 100 µM in test [5]; 37.7 µM in test [6]. In addition, the TGI is 51.9 µM in [7], 67.1 µM in test [8], greater than 100 µM in [9] and greater than 100 µM in [10].
On to `COc1ccc2nc3cc([N+](=O)[O-])ccc3c(NNc3ccc(Cl)cc3)c2c1`, for which the TGI was greater than 68.3 µM in test [1]; greater than 92.4 µM in test [2]; 37.7 µM in test [3]; 45.1 µM in test [4]; 60.6 µM in [5]; 99 µM in [6]. For the same molecule, the TGI in test [7] was 43.5 µM; in [8] it was 65.1 µM; in test [9] it was 57.9 µM; in test [10], greater than 100 µM.
In the case of `COc1cccc(-c2cccc(SC)n2)n1`, the TGI in [1] was greater than 100 µM; in [2], greater than 100 µM; in [3], 55.5 µM; in [4], greater than 100 µM; in [5] it was 75.5 µM; in [6] it was 97.3 µM. Moreover, the TGI in test [7] was 93.8 µM; in test [8], greater than 100 µM; in [9], 67.4 µM; in test [10], 98.9 µM.
As to `CC(C)C[C@H](NC(=O)CCc1ccccc1)B(O)O`, the TGI in test [1] is 62.7 µM; in test [2], 11.4 µM; in test [3], 9.8 µM; in [4] it was greater than 100 µM; in test [5] it was 27 µM; in test [6], greater than 100 µM. For the same molecule, the TGI turned out to be 15.4 µM in [7], 46.2 µM in test [8], 65.1 µM in test [9] and 37.8 µM in test [10].
Take `C/C(=N\NS(=O)(=O)c1ccc(C)cc1)C(CN(C)C)C(c1ccccc1)c1c(O)c2ccccc2oc1=O` (stereo not given): the TGI in [1], in test [2], in [3], in [4], in test [5] and in test [6] was greater than 100 µM in each case. The TGI in test [7], in test [8], in test [9] and in [10] was greater than 100 µM throughout.
Consider `Cc1ccc(S(=O)(=O)NC(=O)NCC(=O)NCC(=O)O)cc1`, for which the TGI in test [1], in [2], in [3], in test [4], in test [5] and in [6] was greater than 100 µM in each case. Also, the TGI in [7], in test [8], in test [9] and in [10] was greater than 100 µM throughout.
As for `CC(=O)OC1OC2C(NC(=O)OC(C)(C)C)C1CC2(OCc1ccccc1)OCc1ccccc1` (stereo not given), the TGI in test [1] was greater than 94.8 µM; in [2] it was 62.9 µM; in test [3], greater than 100 µM; in test [4] it was 90.3 µM; in [5], 40.7 µM; in test [6] it was greater than 100 µM. Further, the TGI in test [7] was greater than 100 µM; in test [8], greater than 100 µM; in test [9], 30.3 µM; in test [10], 37.9 µM.
Regarding `Cc1cc(S(=O)(=O)Nc2nc(N)nc(N3CCOCC3)n2)c(SCC(=O)O)cc1Cl`, the TGI in [1], in test [2], in [3], in [4], in test [5] and in [6] was greater than 10 µM throughout. Also, the TGI in test [7], in [8], in test [9] and in [10] was greater than 10 µM throughout.

The values are drawn from PubChem BioAssay (NCI).
